pEC50, pIC50: −log10 of the molar value.
Experiments:
[1] = system: HCV replicon cells; assay: HCV replicon FRET assay; assay type: cell-based; conditions: Hepatitis C virus
Description: FRET Assay Preparation. To perform the HCV FRET screening assay, 96-well cell culture plates were used. The FRET peptide (Anaspec, Inc.) (Taliani et al., Anal Biochem. 1996, 240, 60-67) contains a fluorescence donor, EDANS, near one end of the peptide and an acceptor, DABCYL, near the other end. The fluorescence of the peptide is quenched by […] resonance energy transfer (RET) between the donor and the acceptor, but as the NS3 protease cleaves the peptide the products are released from RET quenching and the fluorescence of the donor becomes apparent. The assay reagent was made as follows: 5× cell Luciferase cell culture lysis reagent from Promega (#E153A) diluted to 1× with dH2O, NaCl added to 150 mM final, the FRET peptide diluted to 20 μM final from a 2 mM stock.
To prepare plates, HCV replicon cells, with or without a Renilla luciferase reporter gene, were trypsinized and placed into each well of a 96-well plate with titrated test compounds added in columns 3 through 12; columns 1 and 2 contained a control compound (HCV protease inhibitor), and the bottom row contained cells without compound. The plates were then placed in a CO2 incubator at 37° C.
Assays. Subsequent to addition of the test compounds described above (FRET Assay Preparation), at various times the plate was removed and Alamar blue solution (Trek Diagnostics, #00-100) was added per well as a measure of cellular toxicity. After reading in a Cytoflour 4000 instrument (PE Biosystems), plates were rinsed with PBS and then used for FRET assay by the addition of 30 ul of the FRET peptide assay reagent described above (FRET Assay Preparation) per well. The plate was then placed into the Cytoflour 4000 instrument which had been set to 340 excite/490 emission, automatic mode for 20 cycles and the plate read in a kinetic mode. Typically, the signal to noise using an endpoint analysis after the reads was at least three-fold. Alternatively, after Alamar blue reading, plates were rinsed with PBS, 50 ul of DMEM (high glucose) without phenol red was added and plates were then used for luciferase assay using the Promega Dual-Glo Luciferase Assay System.
Compound analysis was determined by quantification of the relative HCV replicon inhibition and the relative cytotoxicity values. To calculate cytoxicity values, the average Alamar Blue fluorescence signals from the control wells were set as 100% non-toxic. The individual signals in each of the compound test wells were then divided by the average control signal and multiplied by 100% to determine […]. To calculate the HCV replicon inhibition values, an average background value was obtained from the two wells containing the highest amount of HCV protease inhibitor at the end of the assay period. These numbers were similar to those obtained from naïve Huh-7 cells.
The background numbers were then subtracted from the average signal obtained from the control wells and this number was used as 100% activity. The individual signals in each of the compound test wells were then divided by the averaged control values after background subtraction and multiplied by 100% to determine percent activity. EC50 values for a protease inhibitor titration were calculated as the concentration which caused a 50% reduction in FRET or luciferase activity. The two numbers generated for the compound plate, percent cytoxicity and percent activity were used to determine compounds of interest for further analysis.

[2] = biological target: T1, HCV NS5B (Hepatitis C virus genotype 1b, UniProt Q9WMX2); assay: HCV NS5B RdRp enzyme assay (preincubation protocol); assay type: biochemical; conditions: HCV NS5B RdRp genotype 1b
T1 construct: The protein was expressed with an 18 amino acid C-terminal truncation to enhance the solubility; made in house; host or cells: E. coli BL21(DE3)
Method: HCV NS5B RdRp cloning, expression, and purification. The cDNA encoding the NS5B protein of HCV, genotype 1b, was cloned into the pET21a expression vector. The protein was expressed with an 18 amino acid C-terminal truncation to enhance the solubility. The E. coli competent cell line BL21(DE3) was used for expression of the protein. Cultures were grown at 37° C. for ˜4 hours until the cultures reached an optical density of 2.0 at 600 nm. The cultures were cooled to 20° C. and induced with 1 mM IPTG. Fresh ampicillin was added to a final concentration of 50 μg/ml and the cells were grown overnight at 20° C.
Cell pellets (3 L) were lysed for purification to yield 15-24 mgs of purified NS5B. The lysis buffer consisted of 20 mM Tris-HCl, pH 7.4, 500 mM NaCl, 0.5% triton X-100, 1 mM DTT, 1 mM EDTA, 20% glycerol, 0.5 mg/ml lysozyme, 10 mM MgCl2, 15 ug/ml deoxyribonuclease I, and Complete TM protease inhibitor tablets (Roche). After addition of the lysis buffer, frozen cell pellets were resuspended using a tissue homogenizer. To reduce the viscosity of the sample, aliquots of the lysate were sonicated on ice using a microtip attached to a Branson sonicator. The sonicated lysate was centrifuged at 100,000×g for 1 hr at 4° C. and filtered through a 0.2 μm filter unit (Corning).
The protein was purified using three sequential chromatography steps: Heparin sepharose CL-6B, polyU sepharose 4B, and Hitrap SP sepharose (Pharmacia). The chromatography buffers were identical to the lysis buffer but contained no lysozyme, deoxyribonuclease I, MgCl2 or protease inhibitor and the NaCl concentration of the buffer was adjusted according to the requirements for charging the protein onto the column. Each column was eluted with a NaCl gradient which varied in length from 5-50 column volumes depending on the column type. After the final chromatography step, the resulting purity of the enzyme is >90% based on SDS-PAGE analysis. The enzyme was aliquoted and stored at −80° C.
Standard HCV NS5B RdRp enzyme assay. HCV RdRp genotype 1b assays were run in a final volume of 60 μl in 96 well plates (Costar 3912 H. The assay buffer is composed of 20 mM Hepes, pH 7.5, 2.5 mM KCl, 2.5 mM MgCl2, 1 mM DTT, 1.6 U RNAse inhibitor (Promega N2515), 0.1 mg/ml BSA (Promega R3961), and 2% glycerol. All compounds were serially diluted (3-fold) in DMSO and diluted further in water such that the final concentration of DMSO in the assay was 2%. HCV RdRp genotype 1b enzyme was used at a final concentration of 28 nM. A polyA template was used at 6 nM, and a biotinylated oligo-dT12 primer was used at 180 nM final concentration. Template was obtained commercially (Amersham 27-4110). Biotinylated primer was prepared by Sigma Genosys. 3H-UTP was used at 0.6 μCi (0.29 μM total UTP). Reactions were initiated by the addition of enzyme, incubated at 30° C. for 60 min, and stopped by adding 25 μl of 50 mM EDTA containing SPA beads (4 μg/μl, Amersham RPNQ 0007 H. Plates were read on a Packard Top Count NXT after >1 hr incubation at room temperature.
Modified HCV NS5B RdRp enzyme assay. A modified enzyme assay was performed essentially as described for the standard enzyme assay except for the following: The biotinylated oligo dT12 primer was precaptured on streptavidin-coated SPA beads by mixing primer and beads in assay buffer and incubating at room temperature for one hour. Unbound primer was removed after centrifugation. The primer-bound beads were resuspended in 20 mM Hepes buffer, pH 7.5 and used in the assay at final concentrations of 20 nM primer and 0.67 μg/μl beads. Order of addition in the assay: enzyme (14 nM) was added to diluted compound followed by the addition of a mixture of template (0.2 nM), 3H-UTP (0.6 μCi, 0.29 μM), and primer-bound beads, to initiate the reaction; concentrations given are final. Reactions were allowed to proceed for 4 hours at 30° C.
IC50 values for compounds were determined using seven different [I]. […]

T1 sequence (Q9WMX2 2420-2992): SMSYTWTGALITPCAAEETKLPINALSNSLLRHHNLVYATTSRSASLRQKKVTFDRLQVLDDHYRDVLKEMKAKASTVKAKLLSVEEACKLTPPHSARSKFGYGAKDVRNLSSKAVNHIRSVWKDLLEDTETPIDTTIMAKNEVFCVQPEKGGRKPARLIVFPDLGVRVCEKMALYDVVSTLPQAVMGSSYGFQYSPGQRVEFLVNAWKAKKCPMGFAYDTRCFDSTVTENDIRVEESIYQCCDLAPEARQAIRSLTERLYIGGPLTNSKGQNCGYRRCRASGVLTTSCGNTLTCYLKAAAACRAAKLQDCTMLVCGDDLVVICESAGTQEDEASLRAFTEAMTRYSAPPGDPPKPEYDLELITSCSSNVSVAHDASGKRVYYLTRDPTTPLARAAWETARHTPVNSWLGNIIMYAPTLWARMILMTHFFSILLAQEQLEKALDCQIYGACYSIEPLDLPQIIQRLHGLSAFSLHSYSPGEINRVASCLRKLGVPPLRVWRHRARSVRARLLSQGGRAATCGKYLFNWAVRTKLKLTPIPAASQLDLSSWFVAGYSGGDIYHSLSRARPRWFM

Row | Structure (SMILES) | pEC50 [1] | pIC50 [2]
1 | COC(=O)c1ccc2c(C3CCCCC3)c3n(c2c1)CC(c1nc(CS(C)(=O)=O)no1)=Cc1ccccc1-3 [Example 26, 13-cyclohexyl-6-[3-[(methylsulfonyl)methyl]-1,2,4-oxadiazol-5-yl-]7H-indolo[2,1-a][2]benzazepine-10-carboxylic acid, methyl ester] | < 6.30 | < 6.30
2 | CS(=O)(=O)Cc1noc(C2=Cc3ccccc3-c3c(C4CCCCC4)c4ccc(C(=O)O)cc4n3C2)n1 [Example 27, 13-cyclohexyl-6-[3-[(methylsulfonyl)methyl]-1,2,4-oxadiazol-5-yl]-7H-indolo[2,1-a][2]benzazepine-10-carboxylic acid] | < 6.30 | 6.30 to 9.00
3 | CN(C)S(=O)(=O)NC(=O)c1ccc2c(C3CCCCC3)c3n(c2c1)CC(c1nc(CS(C)(=O)=O)no1)=Cc1ccccc1-3 [Example 28, 13-cyclohexyl-N-[(dimethylamino)sulfonyl]-6-[3-[(methylsulfonyl)methyl]-1,2,4-oxadiazol-5-yl]-7H-indolo[2,1-a][2]benzazepine-10-carboxamide] | < 6.30 | 6.30 to 9.00
4 | Nc1nnc(C2=Cc3ccccc3-c3c(C4CCCCC4)c4ccc(C(=O)O)cc4n3C2)o1 [Example 30, 6-(5-amino-1,3,4-oxadiazol-2-yl)-13-cyclohexyl-7H-indolo[2,1-a][2]benzazepine-10-carboxylic acid] | < 6.30 | < 6.30
5 | O=C(CN1CCOCC1)Nc1nnc(C2=Cc3ccccc3-c3c(C4CCCCC4)c4ccc(C(=O)O)cc4n3C2)o1 [Example 33, 13-cyclohexyl-6-[5-[(4-morpholinylacetyl)amino]-1,3,4-oxadiazol-2-yl]-7H-indolo[2,1-a][2]benzazepine-10-carboxylic acid] | < 6.30 | 6.30 to 9.00
6 | COC(=O)c1ccc2c(C3CCCCC3)c3n(c2c1)CC(c1ncc(CCC(=O)N2CCOCC2)o1)=Cc1ccccc1-3 [Example 35] | < 6.30 | < 6.30
7 | O=C(O)c1ccc2c(C3CCCCC3)c3n(c2c1)CC(c1ncc(CCC(=O)N2CCOCC2)o1)=Cc1ccccc1-3 [Example 36, 13-cyclohexyl-6-[5-[3-(4-morpholinyl)-3-oxopropyl]-2-oxazolyl]-7H-indolo[2,1-a][2]benzazepine-10-carboxylic acid] | < 6.30 | 6.30 to 9.00
8 | CN(C)S(=O)(=O)NC(=O)c1ccc2c(C3CCCCC3)c3n(c2c1)CC(c1ncc(CCC(=O)N2CCOCC2)o1)=Cc1ccccc1-3 [Example 37, 13-cyclohexyl-N-[(dimethylamino)sulfonyl]-6-[5-[3-(4-morpholinyl)-3-oxopropyl]-2-oxazolyl-]7H-indolo[2,1-a][2]benzazepine-10-carboxamide] | 6.30 to 9.00 | 6.30 to 9.00
9 | CN(C)S(=O)(=O)NC(=O)c1ccc2c(C3CCCCC3)c3n(c2c1)CC(c1ncc(CCC(=O)N2CCOCC2)o1)Cc1ccccc1-3 (stereo not shown) [Example 38, 13-cyclohexyl-N-[(dimethylamino)sulfonyl]-6,7-dihydro-6-[5-[3-(4-morpholinyl)-3-oxopropyl]-2-oxazolyl]-5H-indolo[2,1-a][2]benzazepine-10-carboxamide] | 6.30 to 9.00 | 6.30 to 9.00
10 | COC(=O)c1ccc2c(C3CCCCC3)c3n(c2c1)CC(c1nnc(CC2CCOCC2)o1)=Cc1ccccc1-3 [Example 39, 13-cyclohexyl-6-[5-[(tetrahydro-2H-pyran-4-yl)methyl]-1,3,4-oxadiazol-2-yl]-7H-indolo[2,1-a][2]benzazepine-10-carboxylic acid, methyl ester] | < 6.30 | < 6.30
11 | COC(=O)c1ccc2c(C3CCCCC3)c3n(c2c1)CC(c1n[nH]c(CC2CCOCC2)n1)=Cc1ccccc1-3 [Example 40, 13-cyclohexyl-6-[5-[(tetrahydro-2H-pyran-4-yl)methyl]-1H-1,2,4-triazol-3-yl]-7H-indolo[2,1-a][2]benzazepine-10-carboxylic acid, methyl ester] | < 6.30 | < 6.30
12 | COC(=O)c1ccc2c(C3CCCCC3)c3n(c2c1)CC(c1nc(CC2CCOCC2)n(C)n1)=Cc1ccccc1-3 [Example 41, 13-cyclohexyl-6-[1-methyl-5-[(tetrahydro-2H-pyran-4-yl)methyl]-1H-1,2,4-triazol-3-yl]-7H-indolo[2,1-a][2]benzazepine-10-carboxylic acid, methyl ester] | < 6.30 | < 6.30
13 | Cn1nc(C2=Cc3ccccc3-c3c(C4CCCCC4)c4ccc(C(=O)O)cc4n3C2)nc1CC1CCOCC1 [Example 42, 13-cyclohexyl-6-[1-methyl-5-[(tetrahydro-2H-pyran-4-yl)methyl]-1H-1,2,4-triazol-3-yl]-7H-indolo[2,1-a][2]benzazepine-10-carboxylic acid] | < 6.30 | < 6.30
14 | CN(C)S(=O)(=O)NC(=O)c1ccc2c(C3CCCCC3)c3n(c2c1)CC(c1nc(CC2CCOCC2)n(C)n1)=Cc1ccccc1-3 [Example 43, 13-cyclohexyl-N-[(dimethylamino)sulfonyl]-6-[1-methyl-5-[(tetrahydro-2H-pyran-4-yl)methyl]-1H-1,2,4-triazol-3-yl]-7H-indolo[2,1-a][2]benzazepine-10-carboxamide] | < 6.30 | 6.30 to 9.00

— patent US7456165B2, “HCV NS5B inhibitors” (Bristol-Myers Squibb Company, priority 2006, dated 2008)
